Results on 6 compounds are retold here after patent US4001228A, “2-Thiol-4,5-diphenyloxazole S-derivatives” (Serono Laboratories, Inc., priority 1974, dated 1977).

The test system of series [1] is ADP induced platelet aggregation (platelet-rich rabbit plasma). The series is described as follows: ADP (5 μg/ml) induced platelet aggregation in vitro on platelet-rich plasma. In kind it is cell-based. The conditions noted are these: Oryctolagus cuniculus, 10 min. The procedure: (§1) The inhibitory activity on platelet aggregation was determined for the same compounds in vitro on platelet-rich rabbit plasma prepared by collecting the blood in a plastic centrifuge tube containing enough 3.8% sodium citrate to give a concentration of 0.38 g/100 ml when mixed with the blood, and then centrifuging at 100 × g for 20 minutes.
(§2) 1 ml aliquots of the thus prepared plasma were placed in a Platelet Aggregation Meter connected to a potentiometric recorder and tested according to Born, Nature (London), 194, 927 (1962).
(§3) The plasma-test compound mixtures were incubated for 10 min. at 37° C before addition of the aggregating agents, that is, Adenosine Diphosphate (ADP) or collagen.
(§4) The curves were read following the method described by O'Brien et al., Thromb. Diath. Haemorrhag. 16, 751 (1966). Slope and maximum transmission were recorded and expressed as % change with respect to controls. In the case of collagen induced platelet aggregation, the delay time ("reaction time") in seconds from the addition of the aggregating agent to the inflection of the curve was also measured and expressed as % change as above. For comparison purposes, acetylsalicylic acid (ASA) was also tested in the same conditions as the test compounds.
(§5) Negative figures in slope and maximum transmission % changes indicate antiaggregating activity. Positive figures in delay time % changes indicate that the compound is effective in prolonging the reaction time in the collagen induced platelet aggregation test.

Series [2] deals with collagen induced platelet aggregation (platelet-rich rabbit plasma). Description: Collagen (40 μg/ml) induced platelet aggregation in vitro on platelet-rich plasma. In kind it is cell-based. The conditions noted are these: Oryctolagus cuniculus, 10 min. The procedure: as §1, §2, §3, §4, §5
A short description of series [3]: Acute toxicity determined as approximate LD50. In kind it is in vivo. The settings on record: mouse, in vivo, ip; three groups of three "Swiss" mice. The method, then:
(§6) The acute toxicity of some of the compounds of formula (I) was determined as approximate LD50, according to the method described in Acta Pharmacol, et toxicol, 25, 345 (1967), on three groups of three "Swiss" mice.

Another series relates to "Swiss" mice. The series is described as follows: Acute toxicity determined as approximate LD50. The format is in vivo. The conditions noted are these: i.p.; three groups of three "Swiss" mice. The method, then:
as §6

[4] abbreviates: read-out: Maximum transmission, % change.

SMILES strings stand for the structures. Structures can show the parent of a compound that is named as a salt. Where two headings read alike, the source gives them in different places.

Turning to `CC(=O)Oc1ccccc1C(=O)O` [ASA, acetylsalicylic acid, reference compound], the inhibition at 100 µg/mL in series [1] (setting [4]) amounted to 13.2%; in series [1] (read-out: Slope, % change) it was 17.4%. In addition, the inhibition at 1.25 µg/mL in series [2] (setting [4]) came to 15.2%; in series [2] (read-out: Slope, % change), 22.1%.

The term LD50 denotes the dose at which mortality reaches 50%. Low readings indicate greater toxicity, high ones lower toxicity. For the compound `O=C(O)CSc1nc(-c2ccccc2)c(-c2ccccc2)o1` [Example 2, S-(4,5-DIPHENYLOXAZOL-2-yl)-MERCAPTOACETIC ACID], the LD50 in series [3] was around 220 mg/kg.

For the compound `O=C(O)CSc1nc(-c2ccccc2)c(-c2ccccc2)o1` [Example 3, 2-DIMETHYLAMINOETHANOL SALT OF S-(4,5-DIPHENYLOXAZOL-2-YL)-MERCAPTOACETIC ACID], the “Approximate LD50” value in the series on "Swiss" mice was around 220 mg/kg. For the same compound, the water solubility result in the series “Solubility (qualitative)” was “water-soluble”.

On to `O=C(O)CSc1nc(-c2ccccc2)c(-c2ccccc2)o1` [Example 4, METHYLAMINOETHANOL SALT OF S-(4,5-DIPHENYLOXAZOL-2-YL)-MERCAPTOACETIC ACID], for which the “Approximate LD50” value in the series with "Swiss" mice is given as around 220 mg/kg.

On to `CN(C)CCOC(=O)CSc1nc(-c2ccccc2)c(-c2ccccc2)o1` [Example 5, 2-DIMETHYL[…]-(4,5-DIPHENYLOXAZOL-2-YL)-MERCAPTOACETATE], for which the LD50 in series [3] was around 220 mg/kg. Further, the inhibition at 100 µg/mL in series [1] (setting [4]) amounted to 45.2%; in series [1] (read-out: Slope, % change) it was 47.2%. The inhibition at 1.25 µg/mL in series [2] (setting [4]) came out at 67.7%; in series [2] (read-out: Slope, % change) it was 72.5%. Besides, the water solubility entry in “Solubility (qualitative)” is listed as “water soluble”.

`NC(=O)CSc1nc(-c2ccccc2)c(-c2ccccc2)o1` [Example 9, S-(4,5-DIPHENYLOXAZOL-2-YL)-MERCAPTOACETAMIDE] showed a median lethal dose (LD50) in series [3] of around 1200 mg/kg. In addition, the inhibition at 100 µg/mL came out at 6.6% in series [1] (ADP 5 μg/ml, compound 100 μg/ml, 10 min incubation at 37° C, change with respect to controls, negative = antiaggregating, read-out: Maximum transmission, % change) and 7.1% in series [1] (ADP 5 μg/ml, compound 100 μg/ml, 10 min incubation at 37° C, change with respect to controls, negative = antiaggregating, read-out: Slope, % change). Further, the inhibition at 1.25 µg/mL in series [2] (collagen 40 μg/ml, compound 1.25 μg/ml, 10 min incubation at 37° C, change with respect to controls, negative = antiaggregating, read-out: Maximum transmission, % change) amounted to 12.3%; in series [2] (collagen 40 μg/ml, compound 1.25 μg/ml, 10 min incubation at 37° C, change with respect to controls, negative = antiaggregating, read-out: Slope, % change), 18.4%.
